Reference: US10800792B2, “Inhibitors of Bruton's tyrosine kinase and method of their use” (JANSSEN PHARMACEUTICA NV, priority 2015, dated 2020)

Biological target: unphosphorylated-BTK kinase domain (UP-BTK), GST-tagged human BTK (389-659aa) (Homo sapiens (Human), UniProt Q06187)
Test: BTK kinase Lanthascreen binding assay
Settings: pIC50 = negative log of the IC50 in molar; for IC50: read-out: BTK_I_binding pIC50 (converted)
Method in brief: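 Values are pIC50, i.e. negative log of IC50 in molar, derived from concentration–response fitting. Each compound competes with a fluorescently labelled tracer for the unphosphorylated kinase domain.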

[1] = 60 minutes incubation, 50 nM Tracer 236
[2] = Lanthascreen tracer competition, 60 minutes incubation

Chain of unphosphorylated-BTK kinase domain (UP-BTK), GST-tagged human BTK (389-659aa) (Q06187 389-659): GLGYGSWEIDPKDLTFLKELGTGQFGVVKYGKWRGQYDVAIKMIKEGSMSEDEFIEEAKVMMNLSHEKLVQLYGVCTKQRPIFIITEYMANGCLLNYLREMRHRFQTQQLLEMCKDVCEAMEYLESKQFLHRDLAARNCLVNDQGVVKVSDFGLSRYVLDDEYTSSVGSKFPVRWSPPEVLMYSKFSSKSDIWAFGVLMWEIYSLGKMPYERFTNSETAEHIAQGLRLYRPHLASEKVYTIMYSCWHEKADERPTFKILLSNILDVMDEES

| SMILES | BTK_I_binding pIC50 [2] | other results |
| --- | --- | --- |
| C=CC(=O)N1CCC[C@@H](NC(=O)c2sc3nccc4c3c2NC(=O)N4c2ccc(Oc3ccccc3)cc2F)C1 [Example 10, (R)—N-(1-Acryloylpiperidin-3-yl)-5-(2-fluoro-4-phenoxyphenyl)-4-oxo-4,5-dihydro-3H-1-thia-3,5,8-triazaacenaphthylene-2-carboxamide] |  | IC50 [1]: 7.94 nM |
| Cc1cc(Oc2ccccc2)ccc1N1C(=O)Nc2c(C(=O)NC3COCCN(C#N)C3)sc3nccc1c23 (centres unmarked) [Example 31, N-(4-Cyano-1,4-oxazepan-6-yl)-5-(2-methyl-4-phenoxyphenyl)-4-oxo-4,5-dihydro-3H-1-thia-3,5,8-triazaacenaphthylene-2-carboxamide] |  | IC50 [1]: 20 nM |
| N#C/C(=C\C1CC1)C(=O)N1CCC[C@H](NC(=O)c2sc3nccc4c3c2NC(=O)N4c2ccc(C(=O)Nc3cc(C(F)(F)F)ccn3)cc2F)C1 [Example 902, (S,E)-N-(1-(2-Cyano-3-cyclopropylacryloyl)piperidin-3-yl)-5-(2-fluoro-4-((4-(trifluoromethyl)pyridin-2-yl)carbamoyl)phenyl)-4-oxo-4,5-dihydro-3H-1-thia-3,5,8-triazaacenaphthylene-2-carboxamide] |  | BTK_I_binding pIC50 (unphosphorylated-BTK kinase domain, 60 minutes incubation, 50 nM Tracer 236): 6.8 |
| Cc1cc(Oc2ccccc2)ccc1N1C(=O)Nc2c(C(=O)N[C@@H]3CCCN(C(=O)/C=C/C(C)C)C3)sc3nccc1c23 [Example 247, (R,E)-5-(2-Methyl-4-phenoxyphenyl)-N-(1-(4-methylpent-2-enoyl)piperidin-3-yl)-4-oxo-4,5-dihydro-3H-1-thia-3,5,8-triazaacenaphthylene-2-carboxamide] |  | BTK_I_binding pIC50 [1]: 6.5 |
| C=CC(=O)N1CCC[C@@H](NC(=O)c2sc3nccc4c3c2NC(=O)N4c2cccc(OC3CCC3)c2)C1 [Example 598] | 6.5 |  |
| C=CC(=O)N1CCC[C@@H](NC(=O)c2sc3nccc4c3c2NC(=O)N4c2cccc(OC(F)(F)F)c2)C1 [Example 568, (R)—N-(1-Acryloylpiperidin-3-yl)-4-oxo-5-(3-(trifluoromethoxy)phenyl)-4,5-dihydro-3H-1-thia-3,5,8-triazaacenaphthylene-2-carboxamide] |  | BTK_I_binding pIC50 (unphosphorylated-BTK kinase domain, 50 nM Tracer 236, 60 minutes): 7.4 |

Second part, led by results:

| BTK_I_binding pIC50 [2] | SMILES | other results |
| --- | --- | --- |
| 7.3 | C=CC(=O)N1CC[C@H](NC(=O)c2sc3nccc4c3c2NC(=O)N4c2ccc(Oc3ccccc3)cc2C)C1 [Example 864, (S)—N-(1-Acryloylpyrrolidin-3-yl)-5-(2-methyl-4-phenoxyphenyl)-4-oxo-4,5-dihydro-3H-1-thia-3,5,8-triazaacenaphthylene-2-carboxamide] |  |
| 5.1 | CC(=O)c1cccc(N2C(=O)Nc3c(C(=O)N[C@@H]4CCCNC4)sc4nccc2c34)c1 [Example 643, (R)-5-(3-Acetylphenyl)-4-oxo-N-(piperidin-3-yl)-4,5-dihydro-3H-1-thia-3,5,8-triazaacenaphthylene-2-carboxamide] |  |
| 6.7 | C=CC(=O)N1CC[C@@H](NC(=O)c2sc3nccc4c3c2NC(=O)N4c2ccc(Oc3cccnn3)cc2C)C1 [Example 790, (R)—N-(1-Acryloylpyrrolidin-3-yl)-5-(2-methyl-4-(pyridazin-3-yloxy)phenyl)-4-oxo-4,5-dihydro-3H-1-thia-3,5,8-triazaacenaphthylene-2-carboxamide] |  |
| 5.9 | CCC(=O)N1CCCC(C(=O)Nc2sc3nccc4c3c2NC(=O)N4c2ccc(Oc3ccccc3)cc2C)C1 (centres unmarked) [Example 818, N-(5-(2-Methyl-4-phenoxyphenyl)-4-oxo-4,5-dihydro-3H-1-thia-3,5,8-triazaacenaphthylen-2-yl)-1-propionylpiperidine-3-carboxamide] |  |
| <6 | CC(C)c1cc(N2C(=O)Nc3c(C(=O)N[C@@H]4CCCNC4)sc4nccc2c34)ccn1 [Example 727, (R)-5-(2-Isopropylpyridin-4-yl)-4-oxo-N-(piperidin-3-yl)-4,5-dihydro-3H-1-thia-3,5,8-triazaacenaphthylene-2-carboxamide] |  |
